Experimental data taken from article PMC10998383, “Nitrophenylpiperazine derivatives as novel tyrosinase inhibitors: design, synthesis, and in silico evaluations” (BMC Chemistry, 2024).
Entries after “also recorded” stand apart in the source; their conditions may differ. Read-outs that look alike come from different tables or passages of the source.

Columns and labels:
mushroom tyrosinase [1] = target: T1, mushroom tyrosinase (Agaricus bisporus, UniProt C7FF04); test: Mushroom tyrosinase inhibitory assay with L-dopa as substrate; type: biochemical; details: for inhibition at 100 µM: read-out: % Inhibition at 100 μM;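 for all read-outs here: enzyme activity followed as absorbance change at 475 nm in phosphate buffer pH 6.8, monitored continuously, IC50 derived from percent inhibition dose–response curves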
Procedure: The mushroom tyrosinase activity assays for the synthetic compounds were conducted using a modified procedure from a previous study. In summary, a 96-well microplate was utilized, and 160 μl of phosphate buffer (50 mM, pH 6.8), 10 μl of mushroom tyrosinase (500 U/ml, dissolved in PBS), and 10 μl of the test compound (dissolved in DMSO) were added to each well. Then, 20 μl of L-dopa (7 mM, dissolved in PBS) was added to initiate the enzymatic reaction. The change in absorbance at 475 nm was continuously monitored using a spectrophotometer. […] The IC50 value, representing the compound’s inhibitory potency, was determined from dose–response curves of percentage inhibition.

mushroom tyrosinase [2] = target: T1, mushroom tyrosinase; details: cited from earlier work
B16F10 cells = test system: B16F10 cells; design: method as in PMID 30856375; details: cited from earlier work
mushroom tyrosinase [3] = target: T1, mushroom tyrosinase; test: Determination of the inhibition type (Lineweaver–Burk plot analysis)
[4] = L-dopa substrate, ± SD, read-out: IC50 ± SD

T1 sequence (C7FF04 1-392): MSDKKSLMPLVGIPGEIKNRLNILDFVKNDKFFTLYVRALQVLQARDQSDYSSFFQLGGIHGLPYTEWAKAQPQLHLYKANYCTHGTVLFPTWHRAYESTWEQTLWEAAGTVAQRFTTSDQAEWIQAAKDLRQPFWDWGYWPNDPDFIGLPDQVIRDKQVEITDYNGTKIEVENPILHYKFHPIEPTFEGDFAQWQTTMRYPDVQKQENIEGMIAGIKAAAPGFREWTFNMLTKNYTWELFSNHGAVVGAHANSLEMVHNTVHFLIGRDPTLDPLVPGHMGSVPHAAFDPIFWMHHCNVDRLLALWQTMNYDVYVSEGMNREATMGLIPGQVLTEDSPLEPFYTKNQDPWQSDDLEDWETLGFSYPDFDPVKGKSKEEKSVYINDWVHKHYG

**Q.** For `O=C(OCCN1CCN(c2ccc([N+](=O)[O-])cc2)CC1)c1ccc([N+](=O)[O-])cc1` [Compound 4d, 2-(4-(4-Nitrophenyl)piperazin-1-yl)ethyl 4-nitrobenzoate], which inhibition at 100 µM (mushroom tyrosinase [1]; 100 μM, L-dopa substrate, ± SD) is on record?
**A.** Its inhibition at 100 µM is 28.3 ± 2.89%.

**Q.** And the IC50 (mushroom tyrosinase [1]; [4])?
**A.** The IC50 was 203.2 ± 1.16 µM.

**Q.** What about the melting point of the same compound?
**A.** Its melting point is 172 to 174 °C.

**Q.** For `COc1ccc(CC(=O)OCCN2CCN(c3ccc([N+](=O)[O-])cc3)CC2)cc1` [Compound 4g, 2-(4-(4-Nitrophenyl)piperazin-1-yl)ethyl 2-(4-methoxyphenyl)acetate], which IC50 (mushroom tyrosinase [1]) is on record?
**A.** The IC50 was greater than 200 µM.

**Q.** And the inhibition at 100 µM (mushroom tyrosinase [1]; 100 μM, L-dopa substrate, ± SD)?
**A.** The inhibition at 100 µM was 30 ± 4.04%.

**Q.** What about the melting point of the same compound?
**A.** Its melting point is 207 to 209 °C.

**Q.** Which IC50 (mushroom tyrosinase [2]) does the source give for `O=C(c1ccccc1C(F)(F)F)N1CCN(Cc2ccc(F)cc2)CC1` [E] here?
**A.** The IC50 was 0.48 ± 0.05 µM.

**Q.** Which IC50 (mushroom tyrosinase [2]) does the source give for `COc1ccc(/C=C/C(=O)N2CCN(c3ccc(F)c(Cl)c3)CC2)cc1[N+](=O)[O-]` [D] here?
**A.** Its IC50 is 0.51 µM.

**Q.** With `O=C(OCCN1CCN(c2ccc([N+](=O)[O-])cc2)CC1)c1ccc([N+](=O)[O-])o1` [Compound 4m, 2-(4-(4-Nitrophenyl)piperazin-1-yl)ethyl 5-nitrofuran-2-carboxylate] as the compound, how does the inhibition at 100 µM (mushroom tyrosinase [1]; 100 μM, L-dopa substrate, ± SD) read?
**A.** Its inhibition at 100 µM is 43.7 ± 3.18%.

**Q.** What about the IC50 (mushroom tyrosinase [1]; [4]) of the same compound?
**A.** The IC50 was 175.3 ± 0.24 µM.

**Q.** What does the source list for `CN1CCN(C(=O)/C=C/c2ccc(O)cc2O)CC1` [C]?
**A.** Cellular tyrosinase activity (B16F10 cells): dose-dependently inhibited; Melanin content (B16F10 cells): dose-dependently inhibited; % inhibition (mushroom tyrosinase [2]; at 25 μM): 94.39%

**Q.** For `O=C(O)/C=C/c1ccc(O)c(O)c1` [caffeic acid], which Tyrosinase inhibitory potential (mushroom tyrosinase [2]) is on record?
**A.** Its Tyrosinase inhibitory potential is “almost inactive”.

**Q.** For `O=C(Cc1ccccc1)OCCN1CCN(c2ccc([N+](=O)[O-])cc2)CC1` [Compound 4i, 2-(4-(4-Nitrophenyl)piperazin-1-yl)ethyl 2-phenylacetate], which IC50 (mushroom tyrosinase [1]) is on record?
**A.** The IC50 was 184.2 ± 0.88 µM.

**Q.** What about the inhibition at 100 µM (mushroom tyrosinase [1]) of the same compound?
**A.** Its inhibition at 100 µM is 39.4 ± 4.18%.

**Q.** What about the melting point of the same compound?
**A.** Its melting point is 178 to 180 °C.

**Q.** Which IC50 (mushroom tyrosinase [1]) does the source give for `O=C(C=Cc1ccccc1)OCCN1CCN(c2ccc([N+](=O)[O-])cc2)CC1` [Compound 4j, 2-(4-(4-Nitrophenyl)piperazin-1-yl)ethyl cinnamate] here?
**A.** Its IC50 is greater than 200 µM.

**Q.** What about the inhibition at 100 µM (mushroom tyrosinase [1]; 100 μM, L-dopa substrate, ± SD) of the same compound?
**A.** The inhibition at 100 µM was 23.1 ± 3.6%.

**Q.** And the melting point?
**A.** Its melting point is 185 to 187 °C.

**Q.** Which results are given for `O=C(OCCN1CCN(c2ccc([N+](=O)[O-])cc2)CC1)c1ccccc1` [Compound 4a, 2-(4-(4-Nitrophenyl)piperazin-1-yl)ethyl benzoate]?
**A.** IC50 (mushroom tyrosinase [1]): 174.7 ± 0.68 µM; inhibition at 100 µM (mushroom tyrosinase [1]; 100 μM, L-dopa substrate, ± SD): 35.8 ± 3.24%; melting point: 176 to 178 °C

**Q.** For `O=C(OCCN1CCN(c2ccc([N+](=O)[O-])cc2)CC1)c1cccc([N+](=O)[O-])c1` [Compound 4e, 2-(4-(4-Nitrophenyl)piperazin-1-yl)ethyl 3-nitrobenzoate], which inhibition at 100 µM (mushroom tyrosinase [1]; 100 μM, L-dopa substrate, ± SD) is on record?
**A.** The inhibition at 100 µM was 24.9 ± 2.81%.

**Q.** What about the IC50 (mushroom tyrosinase [1]; [4]) of the same compound?
**A.** Its IC50 is greater than 200 µM.

**Q.** What about the melting point of the same compound?
**A.** Its melting point is 181 to 183 °C.

**Q.** Which results are given for `O=C(OCCN1CCN(c2ccc([N+](=O)[O-])cc2)CC1)c1ccc([N+](=O)[O-])cc1Cl` [Compound 4f, 2-(4-(4-Nitrophenyl)piperazin-1-yl)ethyl 2-chloro-4-nitrobenzoate]?
**A.** inhibition at 100 µM (mushroom tyrosinase [1]; 100 μM, L-dopa substrate, ± SD): 35.1 ± 2.25%; IC50 (mushroom tyrosinase [1]; [4]): > 200 µM; melting point: 203 to 205 °C

**Q.** Which results are given for `O=C(OCCN1CCN(c2ccc([N+](=O)[O-])cc2)CC1)c1ccccc1Br` [Compound 4b, 2-(4-(4-Nitrophenyl)piperazin-1-yl)ethyl 2-bromobenzoate]?
**A.** IC50 (mushroom tyrosinase [1]): > 200 µM; inhibition at 100 µM (mushroom tyrosinase [1]; 100 μM, L-dopa substrate, ± SD): 20.6 ± 2.58%; melting point: 185 to 187 °C

**Q.** For `O=C(OCCN1CCN(c2ccc([N+](=O)[O-])cc2)CC1)c1cc2ccccc2[nH]1` [Compound 4l, 2-(4-(4-Nitrophenyl)piperazin-1-yl)ethyl 1H-indole-2-carboxylate], which IC50 (mushroom tyrosinase [1]) is on record?
**A.** The IC50 was 72.55 ± 0.49 µM.

**Q.** And the inhibition at 100 µM (mushroom tyrosinase [1]; 100 μM, L-dopa substrate, ± SD)?
**A.** The inhibition at 100 µM was 66.6 ± 4.12%.

**Q.** And the Inhibition mode (mushroom tyrosinase [3]; Lineweaver–Burk plot, L-dopa substrate)?
**A.** Its Inhibition mode is “mixed inhibitor; also recorded: mixed-type inhibition”.

**Q.** What about the Vmax (mushroom tyrosinase [3]; inhibitor concentration 10 µM) of the same compound?
**A.** Its Vmax is 65.79 mM/min.

**Q.** And the Vmax (mushroom tyrosinase [3]; inhibitor concentration 40 µM)?
**A.** The Vmax was 64.10 mM/min.

**Q.** And the Vmax (mushroom tyrosinase [3]; inhibitor concentration 100 µM)?
**A.** The Vmax was 62.89 mM/min.

**Q.** And the melting point?
**A.** The melting point was 192 to 194 °C.

**Q.** What does the source list for `COc1ccc(C=O)c(C(=O)OCCN2CCN(c3ccc([N+](=O)[O-])cc3)CC2)c1OC` [Compound 4h, 2-(4-(4-Nitrophenyl)piperazin-1-yl)ethyl 6-formyl-2,3-dimethoxybenzoate]?
**A.** IC50 (mushroom tyrosinase [1]): 200.9 ± 1.32 µM; inhibition at 100 µM (mushroom tyrosinase [1]; 100 μM, L-dopa substrate, ± SD): 26.9 ± 3.55%; melting point: 176 to 178 °C

**Q.** Which IC50 (mushroom tyrosinase [1]) does the source give for `O=C(OCCN1CCN(c2ccc([N+](=O)[O-])cc2)CC1)c1ccc(Cl)cc1Cl` [Compound 4c, 2-(4-(4-Nitrophenyl)piperazin-1-yl)ethyl 2,4-dichlorobenzoate] here?
**A.** The IC50 was greater than 200 µM.

**Q.** And the inhibition at 100 µM (mushroom tyrosinase [1]; 100 μM, L-dopa substrate, ± SD)?
**A.** Its inhibition at 100 µM is 27.9 ± 3.09%.

**Q.** And the melting point?
**A.** Its melting point is 196 to 198 °C.

**Q.** For `O=C(OCCN1CCN(c2ccc([N+](=O)[O-])cc2)CC1)c1cccnc1` [Compound 4k, 2-(4-(4-Nitrophenyl)piperazin-1-yl)ethyl nicotinate], which IC50 (mushroom tyrosinase [1]) is on record?
**A.** The IC50 was 82.7 ± 1.16 µM.

**Q.** What about the inhibition at 100 µM (mushroom tyrosinase [1]; 100 μM, L-dopa substrate, ± SD) of the same compound?
**A.** The inhibition at 100 µM was 54.3 ± 4.58%.

**Q.** And the melting point?
**A.** The melting point was 168 to 170 °C.
